ChEMBL document CHEMBL1201862, “PubChem BioAssay data set” (2004)
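Assay format: 96-well plates, 48-hour exposure. Abbreviation: GI50, concentration required for 50% inhibition of growth.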 Calls of active or inactive are those of the source. No stated cut-off is given here; in the data, active = GI50 up to about 1.1 µM and inactive = higher.

What was measured:
Assay in all cases: NCI-60 cell line screen, 48 h
[1] = test system: OVCAR-8
[2] = test system: K562
[3] = test system: SK-MEL-2
[4] = test system: IGROV-1
[5] = test system: HOP-62
[6] = test system: UACC-62
[7] = test system: SK-OV-3
[8] = test system: 786-0
[9] = test system: TK-10
[10] = test system: ACHN
[11] = test system: RPMI-8226
[12] = test system: COLO 205
[13] = test system: SNB-19
[14] = test system: DMS-273
[15] = test system: NCI-H226
[16] = test system: MOLT-4
[17] = test system: HT-29
[18] = test system: SW-620
[19] = test system: Hs-578T
[20] = test system: T47D

Measured: GI50

O=C(/C=C/c1ccccc1)CC(=O)CCC(=O)Nc1ccc(Cl)cc1
inactive: [1] > 100 µM | [2] 5.58 µM | [3] > 100 µM | [4] 86.1 µM | [5] 29.6 µM | [6] 2.69 µM | [7] > 100 µM | [8] > 100 µM | [9] > 100 µM | [10] 23.6 µM | [11] > 100 µM | [12] > 100 µM | [13] > 100 µM | [14] 52.7 µM | [15] > 100 µM | [16] > 100 µM | [17] 88.9 µM | [18] > 100 µM

COc1ccc(C[C@@H]2NC[C@@H](O)[C@@H]2OC(C)=O)cc1
active: [1] 0.0189 µM | [2] 0.0104 µM | [3] 0.039 µM | [4] 0.0435 µM | [5] 0.0214 µM | [19] 0.0284 µM | [6] 0.015 µM | [7] 0.0169 µM | [8] 0.0219 µM | [9] 0.0312 µM | [10] 0.011 µM | [20] 0.0227 µM | [11] 0.0296 µM | [12] 0.0102 µM | [13] 0.0228 µM | [14] 0.634 µM | [15] 0.0358 µM | [16] 0.0105 µM | [17] 0.0197 µM | [18] 0.0166 µM

COc1ccc(CNc2nc3ccc(C(F)(F)F)cc3nc2-c2ccccc2)cc1OC
inactive: [1] > 100 µM | [3] > 100 µM | [5] > 100 µM | [6] 30.1 µM | [7] > 100 µM | [8] > 10 µM | [9] 71.6 µM | [10] 27.7 µM | [11] 35.9 µM | [12] 6.41 µM | [13] > 100 µM | [14] 35.1 µM | [15] > 100 µM | [16] 6.71 µM | [17] 61.5 µM | [18] > 100 µM

CSC(C1c2ccccc2N(c2ccc(C)cc2)c2[nH]c(=O)n(C)c(=O)c21)S(=O)(=O)c1ccc(C)cc1 (stereo unspecified)
inactive: [1] > 100 µM | [2] > 100 µM | [3] > 100 µM | [4] > 100 µM | [5] > 100 µM | [6] > 100 µM | [7] > 100 µM | [8] > 100 µM | [9] > 100 µM | [11] 97.1 µM | [12] > 100 µM | [13] > 100 µM | [14] > 100 µM | [15] > 100 µM | [16] > 100 µM | [17] > 100 µM | [18] > 100 µM

ClCCCN1CCN(CCCl)CC1
inactive: [1] 120 µM | [2] 212 µM | [3] 238 µM | [4] 120 µM | [5] 24.1 µM | [19] 305 µM | [6] 10.5 µM | [7] 56.2 µM | [8] 49.7 µM | [9] 357 µM | [10] 11.1 µM | [20] 95.5 µM | [11] 205 µM | [12] 161 µM | [13] 182 µM | [14] 28.9 µM | [15] 215 µM | [16] 5.24 µM | [17] 242 µM | [18] 252 µM

C[C@@]12[Se]c3ccccc3[C@]1(C)[Se]c1ccccc12
inactive: [1] > 100 µM | [2] 4.17 µM | [3] 3.85 µM | [6] 2.23 µM | [8] 4.85 µM | [9] > 100 µM | [10] > 100 µM | [11] 8.85 µM | [12] 3.73 µM | [14] 3.61 µM | [15] > 100 µM | [17] 3.79 µM | [18] 3.27 µM

Nc1ccn(CCO)c(=O)n1
inactive: [1] > 100 µM | [2] > 100 µM | [3] > 100 µM | [4] > 100 µM | [5] > 100 µM | [6] > 100 µM | [7] > 100 µM | [8] > 100 µM | [9] > 100 µM | [10] > 100 µM | [11] > 100 µM | [12] > 100 µM | [14] > 100 µM | [15] > 100 µM | [17] > 100 µM | [18] > 100 µM

C[N+]1(CCNP(=S)(NCC[N+]2(C)Cc3c(ccc4c3OCO4)C3C2c2cc4c(cc2C[C@@H]3O)OCO4)NCC[N+]2(C)Cc3c(ccc4c3OCO4)C3C2c2cc4c(cc2C[C@@H]3O)OCO4)Cc2c(ccc3c2OCO3)C2C1c1cc3c(cc1C[C@H]2O)OCO3 (stereo partly specified)
inactive: [15] 2.42 µM
active: [1] < 0.00191 µM | [2] < 0.00191 µM | [3] < 0.00191 µM | [4] < 0.00191 µM | [5] < 0.00191 µM | [6] < 0.00191 µM | [7] < 0.00191 µM | [8] < 0.00191 µM | [9] < 0.00191 µM | [10] < 0.00191 µM | [11] < 0.00191 µM | [12] < 0.00191 µM | [13] < 0.00191 µM | [14] < 0.00191 µM | [17] < 0.00191 µM | [18] < 0.00191 µM

Cn1c2ccccc2c2cc(-c3ccccc3)c3c(c21)C(=O)C=CC3=O
inactive: [1] 30.3 µM | [2] 5.31 µM | [3] 22.4 µM | [4] 22.8 µM | [5] 28.8 µM | [19] 28.9 µM | [6] 19.3 µM | [7] > 88.1 µM | [8] 8.15 µM | [9] 17.1 µM | [10] 19.8 µM | [20] 9.55 µM | [11] 2.45 µM | [12] 17.5 µM | [13] 36.6 µM | [14] 19.7 µM | [15] 15.2 µM | [16] 3.59 µM | [17] 17.5 µM | [18] 9.48 µM

C[N+](C)(C)CC1CCCCC1=O (stereo unspecified)
inactive: [1] 19.2 µM | [2] 8.63 µM | [4] > 100 µM | [5] > 100 µM | [6] 18.9 µM | [7] > 100 µM | [8] > 100 µM | [9] 37.1 µM | [10] 16.4 µM | [11] 9.06 µM | [12] 22.6 µM | [13] > 100 µM | [14] 71.3 µM | [15] > 100 µM | [16] 12.4 µM | [17] 19.6 µM | [18] 8.49 µM

CC(N)Cc1cccc(C(F)(F)F)c1 (stereo unspecified)
inactive: [1] > 100 µM | [2] > 100 µM | [3] > 100 µM | [4] > 100 µM | [5] > 100 µM | [6] > 100 µM | [7] > 100 µM | [8] > 100 µM | [9] > 100 µM | [10] > 100 µM | [11] > 100 µM | [12] > 100 µM | [13] > 100 µM | [14] > 100 µM | [15] > 100 µM | [17] > 100 µM | [18] > 100 µM

c1ccc(OC2=NC3=S(S2)SC(Oc2ccccc2)=N3)cc1
inactive: [1] 22.2 µM | [2] 16.5 µM | [3] 13.6 µM | [4] 20.8 µM | [5] 26.2 µM | [6] 18.9 µM | [7] 28.2 µM | [8] 15.5 µM | [9] 17.8 µM | [10] 19.2 µM | [11] 4.83 µM | [12] 17.9 µM | [13] 20.4 µM | [14] 25.8 µM | [15] 24.3 µM | [16] 9.98 µM | [17] 21.4 µM | [18] 15 µM

C=CCSC[C@H](NC(=O)COc1ccccc1)C(=O)NC(C(=O)OCc1ccc([N+](=O)[O-])cc1)=C(C)C
inactive: [1] 63 µM | [2] 44.5 µM | [3] > 100 µM | [4] > 100 µM | [5] > 100 µM | [6] 72.6 µM | [7] > 100 µM | [8] > 100 µM | [10] 54 µM | [11] 39.2 µM | [12] 20.6 µM | [14] 50.4 µM | [15] 28.6 µM | [16] 19.8 µM | [17] 39.1 µM

[O-]c1c2c(nn1-c1ccccc1)c1ccccc1c[n+]2Cc1ccccc1
inactive: [1] > 100 µM | [2] > 100 µM | [3] > 100 µM | [4] > 100 µM | [5] > 100 µM | [6] > 100 µM | [7] > 100 µM | [8] > 100 µM | [9] > 100 µM | [10] > 100 µM | [11] > 100 µM | [12] > 100 µM | [13] > 100 µM | [14] > 100 µM | [15] > 100 µM | [16] > 100 µM | [17] > 100 µM | [18] > 100 µM

O=C1C(Cl)C(c2cccc([N+](=O)[O-])c2)N1n1cnc2ccccc2c1=O (stereo unspecified)
inactive: [1] > 100 µM | [2] 49.7 µM | [3] > 100 µM | [4] > 100 µM | [5] > 100 µM | [6] > 100 µM | [7] > 100 µM | [8] > 100 µM | [9] > 100 µM | [10] > 100 µM | [11] 42.3 µM | [12] > 100 µM | [13] > 100 µM | [14] > 100 µM | [15] > 100 µM | [16] 35.1 µM | [17] > 100 µM | [18] > 100 µM

COC(=O)c1cc2ccccc2c2nc3ccccc3c(Cl)c12
inactive: [1] > 100 µM | [2] > 100 µM | [3] > 100 µM | [4] > 100 µM | [5] > 100 µM | [6] > 100 µM | [8] > 100 µM | [9] > 100 µM | [10] > 100 µM | [11] > 100 µM | [12] > 100 µM | [13] 37.4 µM | [14] > 100 µM | [16] > 100 µM | [17] > 100 µM | [18] > 100 µM
